Experimental data as given in patent US20230146455A1, “TREATMENT OF INFLAMMATORY DISEASES WITH PEPTIDES AND PHARMACEUTICAL COMPOSITIONS” (Yuyu Pharma, Inc., priority 2020, published 2023).
Where “and” joins values, the source holds several entries; their conditions need not be identical. Equal entries are not always repeated. Where a SMILES comes first, the peptide text is derived from it. [ ]: non-standard residue; d: D form. Hyp = O=C(O)[C@@H]1C[C@@H](O)CN1

Tests used:
IL-1 alpha/IL-1F1 = experiment: Example 8 main study Luminex, LPS hPBMCs: IL-1 alpha/IL-1F1; assay type: cell-based, human
Protocol: (§1) Human PBMCs were pretreated with YY-101, YDE-011, YDE-043 or reference compound; Xiidra® at various concentration (ranging from […] to 500 nM) for 2 h before stimulation. An equal volume of 0.5% DMSO was used as a vehicle control. Then, the cells were treated with LPS at 5 ug/ml, which was selected based on the pilot study. The supernatants from treated cells were harvested at 24 h and placed in a 96 well for Luminex cytokine & chemokine profiling using a Luminex 200 multiplex assay (Luminex; R&D system, USA).
(§2) The main study arm with triplicate wells per group in a 24-well plate: • 1. Blank • 2. PBMC: 0.5% DMSO • 3. PBMC+LPS (5 ug/ml) • 4. PBMC+YY-101 500 nM • 5. PBMC+YY-101 50 nM • 6. PBMC+YY-101 5 nM • 7. PBMC+YY-101 0.5 nM • 8. PBMC+LPS (5 ug/ml)+Xiidra® 500 nM • 9. PBMC+LPS (5 ug/ml)+Xiidra® 50 nM • 10. PBMC+LPS (5 ug/ml)+Xiidra® 5 nM • 11. PBMC+LPS (5 ug/ml)+Xiidra® 0.5 nM • 12. PBMC+LPS (5 ug/ml)+Xiidra® 0.05 nM • 13. PBMC+LPS (5 ug/ml)+Xiidra® 0.005 nM • 14. PBMC+LPS (5 ug/ml)+YY-101 500 nM • 15. PBMC+LPS (5 ug/ml)+YY-101 50 nM • 16. PBMC+LPS (5 ug/ml)+YY-101 5 nM • 17. PBMC+LPS (5 ug/ml)+YY-101 0.5 nM • 18. PBMC+LPS (5 ug/ml)+YY-101 0.05 nM • 19. PBMC+LPS (5 ug/ml)+YY-101 0.005 nM • 20. PBMC+LPS (5 ug/ml)+YDE-011 500 nM • 21. PBMC+LPS (5 ug/ml)+YDE-011 50 nM • 22. PBMC+LPS (5 ug/ml)+YDE-011 5 nM • 23. PBMC+LPS (5 ug/ml)+YDE-011 0.5 nM • 24. PBMC+LPS (5 ug/ml)+YDE-011 0.05 nM • 25. PBMC+LPS (5 ug/ml)+YDE-011 0.005 nM • 26. PBMC+LPS (5 ug/ml)+YDE-043 500 nM • 27. PBMC+LPS (5 ug/ml)+YDE-043 50 nM • 28. PBMC+LPS (5 ug/ml)+YDE-043 5 nM • 29. PBMC+LPS (5 ug/ml)+YDE-043 0.5 nM • 30. PBMC+LPS (5 ug/ml)+YDE-043 0.05 nM • 31. PBMC+LPS (5 ug/ml)+YDE-043 0.005 nM
(§3) Multiplex assay was used to measure 30 cytokines and chemokines. The 1:200 diluted cell supernatant and serial dilution of the standard were dispensed into a 96 well plate at 50 ul/well. Then, the pre-mixed cocktail of antibody-coated magnetic beads was dispensed at 50 ul/well and incubated at room temperature for 2 h in a horizontal orbital microplate shaker at 800±500 rpm. The beads were washed using a magnetic device to prevent loss. The biotin-antibody was dispensed in 50 ul of each well and incubated at room temperature for 1 h in a shaker at 800±500 rpm. After washing, streptavidin-PE was added at 50 ul/well and incubated at room temperature for 30 min in a shaker under the same conditions. Finally, after washing, wash buffer (100 ul/well) was added to the plate and incubated in a shaker for 2 min. The Luminex™ 200 setting were set according to the manufacturer's protocol. The data was calculated with a standard five-parameter logistic nonlinear regression analysis of the data (xPonent software 4.2, USA). Results were presented as concentration (ng/ml or pg/ml).

Leptin = experiment: Example 8 main study Luminex, LPS hPBMCs: Leptin; assay type: cell-based, human
Protocol: as §1, §2, §3

[1] = PBMC + LPS(5 ug/ml) + test article 5 nM, individual replicates
[2] = PBMC + LPS(5 ug/ml) + test article 50 nM, Mean
[3] = PBMC + LPS(5 ug/ml) + test article 50 nM, individual replicates
[4] = PBMC + LPS(5 ug/ml) + test article 500 nM, Mean
[5] = PBMC + LPS(5 ug/ml) + test article 500 nM, individual replicates
[6] = PBMC + test article 0.5 nM, no LPS, Mean
[7] = PBMC + test article 0.5 nM, no LPS, individual replicates (1st, 2nd)
[8] = PBMC + test article 5 nM, no LPS, Mean
[9] = PBMC + test article 5 nM, no LPS, individual replicates (1st, 2nd)
[10] = PBMC + test article 0.05 uM, no LPS, Mean
[11] = PBMC + test article 0.05 uM, no LPS, individual replicates (1st, 2nd)
[12] = PBMC + test article 50 nM, no LPS, Mean
[13] = PBMC + test article 50 nM, no LPS, individual replicates (1st, 2nd)
[14] = PBMC + test article 500 nM, no LPS, Mean
[15] = PBMC + test article 500 nM, no LPS, individual replicates (1st, 2nd)
[16] = PBMC + LPS(5 ug/ml), test article 0.005 nM
[17] = PBMC + LPS(5 ug/ml), test article 0.05 nM
[18] = PBMC + LPS(5 ug/ml), test article 0.5 nM
[19] = PBMC + LPS(5 ug/ml), test article 5 nM
[20] = PBMC + LPS(5 ug/ml), test article 50 nM
[21] = PBMC + LPS(5 ug/ml), test article 500 nM
[22] = PBMC without LPS, test article 0.5 nM
[23] = PBMC without LPS, test article 5 nM
[24] = PBMC without LPS, test article 0.05 uM
[25] = PBMC without LPS, test article 50 nM
[26] = PBMC without LPS, test article 500 nM

CC(C)C[C@H](NC(=O)CNC(=O)[C@H](CC(=O)O)NC(=O)[C@H](CCC(N)=O)NC(=O)CNC(=O)[C@@H]1C[C@@H](O)CN1)C(=O)N[C@@H](C)C(=O)NCC(=O)N1CCC[C@H]1C(=O)N[C@@H](CCCCN)C(=O)O [YY-101] (H-[Hyp]GQDGLAGPK-OH; N-terminus and C-terminus assumed)
IL-1 alpha/IL-1F1 MFI (IL-1 alpha/IL-1F1; PBMC + LPS(5 ug/ml) + test article 5 nM, Mean): 30.3
IL-1 alpha/IL-1F1 Concentration (IL-1 alpha/IL-1F1; [1]): 444.9 pg/mL and 475.3 pg/mL and 535.6 pg/mL
IL-1 alpha/IL-1F1 MFI (IL-1 alpha/IL-1F1; [1]): 29.0 and 30.0 and 32.0
IL-1 alpha/IL-1F1 Concentration (IL-1 alpha/IL-1F1; [2]): 429.2 pg/mL
IL-1 alpha/IL-1F1 MFI (IL-1 alpha/IL-1F1; [2]): 28.5
IL-1 alpha/IL-1F1 Concentration (IL-1 alpha/IL-1F1; [3]): 383.2 pg/mL and 398.7 pg/mL and 505.6 pg/mL
IL-1 alpha/IL-1F1 MFI (IL-1 alpha/IL-1F1; [3]): 27.0 and 27.5 and 31.0
IL-1 alpha/IL-1F1 Concentration (IL-1 alpha/IL-1F1; [4]): 449.6 pg/mL
IL-1 alpha/IL-1F1 MFI (IL-1 alpha/IL-1F1; [4]): 29.2
IL-1 alpha/IL-1F1 Concentration (IL-1 alpha/IL-1F1; [5]): 460.1 pg/mL and 505.6 pg/mL and 383.2 pg/mL
IL-1 alpha/IL-1F1 MFI (IL-1 alpha/IL-1F1; [5]): 29.5 and 31.0 and 27.0
IL-1 alpha/IL-1F1 Concentration (IL-1 alpha/IL-1F1; [6]): 155.5 pg/mL
IL-1 alpha/IL-1F1 MFI (IL-1 alpha/IL-1F1; [6]): 20.0
IL-1 alpha/IL-1F1 Concentration (IL-1 alpha/IL-1F1; [7]): 155.5 pg/mL
IL-1 alpha/IL-1F1 MFI (IL-1 alpha/IL-1F1; [7]): 20.0
IL-1 alpha/IL-1F1 Concentration (IL-1 alpha/IL-1F1; [8]): 155.5 pg/mL
IL-1 alpha/IL-1F1 MFI (IL-1 alpha/IL-1F1; [8]): 20.0
IL-1 alpha/IL-1F1 Concentration (IL-1 alpha/IL-1F1; [9]): 155.5 pg/mL
IL-1 alpha/IL-1F1 MFI (IL-1 alpha/IL-1F1; [9]): 20.0
IL-1 alpha/IL-1F1 Concentration (IL-1 alpha/IL-1F1; [10]): 92.0 pg/mL
IL-1 alpha/IL-1F1 MFI (IL-1 alpha/IL-1F1; [10]): 18.3
IL-1 alpha/IL-1F1 Concentration (IL-1 alpha/IL-1F1; [11]): 45.8 pg/mL and 138.1 pg/mL
IL-1 alpha/IL-1F1 MFI (IL-1 alpha/IL-1F1; [11]): 17.0 and 19.5
IL-1 alpha/IL-1F1 Concentration (IL-1 alpha/IL-1F1; [12]): 111.1 pg/mL
IL-1 alpha/IL-1F1 MFI (IL-1 alpha/IL-1F1; [12]): 18.8
IL-1 alpha/IL-1F1 Concentration (IL-1 alpha/IL-1F1; [13]): 138.1 pg/mL and 84.2 pg/mL
IL-1 alpha/IL-1F1 MFI (IL-1 alpha/IL-1F1; [13]): 19.5 and 18.0
IL-1 alpha/IL-1F1 Concentration (IL-1 alpha/IL-1F1; [14]): 84.2 pg/mL
IL-1 alpha/IL-1F1 MFI (IL-1 alpha/IL-1F1; [14]): 18.0
IL-1 alpha/IL-1F1 Concentration (IL-1 alpha/IL-1F1; [15]): 84.2 pg/mL
IL-1 alpha/IL-1F1 MFI (IL-1 alpha/IL-1F1; [15]): 18.0
Leptin Concentration (pg/ml), Mean (Leptin; [16]): 16686.7 pg/mL
Leptin Concentration (pg/ml), single replicates (Leptin; [16]): 19789.4 pg/ml (2×) and 10481.4 pg/ml
Leptin Concentration (pg/ml), Mean (Leptin; [17]): 16746.9 pg/mL
Leptin Concentration (pg/ml), single replicates (Leptin; [17]): 17222.7 pg/ml (2×) and 15795.3 pg/ml
Leptin Concentration (pg/ml), Mean (Leptin; [18]): 16226.8 pg/mL
Leptin Concentration (pg/ml), single replicates (Leptin; [18]): 17222.7 pg/ml (2×) and 14234.9 pg/ml
Leptin Concentration (pg/ml), Mean (Leptin; [19]): 21157.1 pg/mL
Leptin Concentration (pg/ml), single replicates (Leptin; [19]): 22079.2 pg/mL and 17222.7 pg/mL and 24169.3 pg/mL
Leptin Concentration (pg/ml), Mean (Leptin; [20]): 15230.8 pg/mL
Leptin Concentration (pg/ml), single replicates (Leptin; [20]): 17222.7 pg/ml and 14234.9 pg/ml (2×)
Leptin Concentration (pg/ml), Mean (Leptin; [21]): 18933.8 pg/mL
Leptin Concentration (pg/ml), single replicates (Leptin; [21]): 19789.4 pg/ml (2×) and 17222.7 pg/ml
Leptin Concentration (pg/ml), Mean (Leptin; [22]): 15728.8 pg/mL
Leptin Concentration (pg/ml), single replicates (Leptin; [22]): 14234.9 pg/mL and 17222.7 pg/mL
Leptin Concentration (pg/ml), Mean (Leptin; [23]): 19092.9 pg/mL
Leptin Concentration (pg/ml), single replicates (Leptin; [23]): 17222.7 pg/mL and 20963.1 pg/mL
Leptin Concentration (pg/ml), Mean (Leptin; [24]): 18506.0 pg/mL
Leptin Concentration (pg/ml), single replicates (Leptin; [24]): 19789.4 pg/mL and 17222.7 pg/mL
Leptin Concentration (pg/ml), Mean (Leptin; [25]): 24092.8 pg/mL
Leptin Concentration (pg/ml), single replicates (Leptin; [25]): 26106.3 pg/mL and 22079.2 pg/mL
Leptin Concentration (pg/ml), Mean (Leptin; [26]): 20376.3 pg/mL
Leptin Concentration (pg/ml), single replicates (Leptin; [26]): 19789.4 pg/mL and 20963.1 pg/mL
